In general, GI50 refers to the concentration giving 50% growth inhibition. As usually defined, the TGI is the concentration giving total growth inhibition.

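Grown in 96-well plates, cells were treated for 48 hours with each compound at five concentrations. Insufficient inhibition: endpoint recorded as highest concentration tested. The concentration for 50% growth inhibition is given as GI50. The concentration for full growth arrest is given as TGI.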

Some test systems named below: OVCAR-3 ovarian; HT29 colon; DU-145 prostate; SF-539 CNS; SW-620 colon; NCI/ADR-RES ovarian; MDA-MB-435; RPMI-8226 leukemia; LOX IMVI melanoma; OVCAR-4 ovarian.
Common to all, as to experiment: DTP human tumour cell line panel, 48 h

As for `Cc1c(C(=O)/C=C/c2ccc(O)cc2)nnn1-c1ccnc2c(C(F)(F)F)cccc12`, the GI50 was 19500 nM with OVCAR-3 ovarian; 3.36 µM in the test on HT29 colon; 30.1 µM with DU-145 prostate; 72500 nM in the test on SF-539 CNS; 27.1 µM with SW-620 colon; 13.9 µM in the test on NCI/ADR-RES ovarian. Besides, the GI50 was 10800 nM in the test with MDA-MB-435, 2840 nM in the test on RPMI-8226 leukemia and 6.41 µM in the test with LOX IMVI melanoma. Moreover, the TGI in the test with OVCAR-3 ovarian was > 100 µM; in the test on HT29 colon, 30.1 µM; in the test with DU-145 prostate, > 100 µM; in the test with SF-539 CNS it was > 100 µM; in the test on SW-620 colon, > 100 µM; with NCI/ADR-RES ovarian it was > 100 µM. Moreover, the TGI in the test on MDA-MB-435 is > 100 µM; in the test on RPMI-8226 leukemia it was 21.1 µM; in the test on LOX IMVI melanoma, > 100 µM.

Turning to `COc1ccc(Cl)cc1N1C(=O)C(Cl)=C(Nc2cccc(O)c2)C1=O`, the GI50 in the test on OVCAR-3 ovarian is 11500 nM; with OVCAR-4 ovarian, 16700 nM; in the test with HT29 colon, 19.9 µM; with DU-145 prostate it was 21.8 µM; with SW-620 colon it was 27.4 µM; in the test with NCI/ADR-RES ovarian it was 27.2 µM. In addition, the GI50 in the test on MDA-MB-435 is 24600 nM; in the test on RPMI-8226 leukemia, 7010 nM; in the test on LOX IMVI melanoma it was 15.8 µM. Moreover, the TGI with OVCAR-3 ovarian is 36.5 µM; in the test on OVCAR-4 ovarian it was 40 µM; in the test with HT29 colon, 59.9 µM; with DU-145 prostate, > 100 µM; in the test on SW-620 colon, 63 µM; in the test on NCI/ADR-RES ovarian, 95.4 µM. The TGI in the test on MDA-MB-435 came out at 62.8 µM; with RPMI-8226 leukemia, 32.3 µM; with LOX IMVI melanoma it was 32.8 µM.

As for `CC1(C)OC2C(CO)OC(n3ccc(=O)[nH]c3=O)C2O1` (stereo unspecified), the TGI in the test on OVCAR-3 ovarian, in the test with DU-145 prostate, in the test on SF-539 CNS, in the test on SW-620 colon, in the test with NCI/ADR-RES ovarian and in the test on MDA-MB-435 was > 100 µM throughout. For the same molecule, the TGI with RPMI-8226 leukemia and with LOX IMVI melanoma was > 100 µM throughout.

For the molecule `OCCNc1nc(NCCO)nc(Nc2ccc(C3=NN(c4cc(Cl)cc(Cl)c4)C(c4ccc(Cl)cc4)C3)cc2)n1` (stereo unspecified), the GI50 with OVCAR-3 ovarian is 1750 nM; with OVCAR-4 ovarian it was 2000 nM; in the test on DU-145 prostate, 1.67 µM; with SF-539 CNS it was 1350 nM; with SW-620 colon, 2.03 µM; with NCI/ADR-RES ovarian it was 2.6 µM. Further, the GI50 in the test on MDA-MB-435 is 1650 nM; in the test on RPMI-8226 leukemia, 1910 nM; with LOX IMVI melanoma, 1.65 µM. The TGI in the test with OVCAR-3 ovarian turned out to be 3.19 µM; in the test with OVCAR-4 ovarian, 5.02 µM; in the test on DU-145 prostate it was 3.22 µM; in the test with SF-539 CNS, 2.63 µM; with SW-620 colon, 4.52 µM; with NCI/ADR-RES ovarian, 7.08 µM. The TGI in the test on MDA-MB-435 turned out to be 3.11 µM; with RPMI-8226 leukemia it was 4.85 µM; in the test with LOX IMVI melanoma it was 3.01 µM.

With `CCCCCCn1c(-c2ccc(C(=O)O/N=C(\N)c3ccc(OC)cc3)cc2)nc(-c2ccccc2)c1-c1ccccc1`, the GI50 in the test with HT29 colon is 2.67 µM; with DU-145 prostate, 1.02 µM; with SF-539 CNS it was 1500 nM; in the test with NCI/ADR-RES ovarian, 1.18 µM; with MDA-MB-435, 1660 nM; in the test with RPMI-8226 leukemia, 1420 nM. In addition, the GI50 in the test on LOX IMVI melanoma was 0.186 µM. In addition, the TGI in the test on HT29 colon was > 100 µM; with DU-145 prostate it was 2.22 µM; in the test with SF-539 CNS it was 3.02 µM; in the test on NCI/ADR-RES ovarian, 3.41 µM; in the test on MDA-MB-435, 3.2 µM; in the test with RPMI-8226 leukemia, 3.9 µM. Moreover, the TGI in the test on LOX IMVI melanoma turned out to be 0.341 µM.

With `COc1ccc(C2CC(=O)Nc3c2c(C)nn3-c2nc3ccccc3[nH]2)cc1` (stereo unspecified), the GI50 in the test with OVCAR-3 ovarian was 2540 nM; in the test on OVCAR-4 ovarian, 3710 nM; in the test on HT29 colon, 3.47 µM; in the test with DU-145 prostate, 3.64 µM; in the test with SF-539 CNS it was 2160 nM; in the test with SW-620 colon, 3.33 µM. In addition, the values for the GI50 with NCI/ADR-RES ovarian, in the test on MDA-MB-435 and in the test with RPMI-8226 leukemia were 5.61 µM, 2550 nM and 2410 nM, respectively. The TGI is 5.72 µM in the test on OVCAR-3 ovarian; > 59.1 µM with OVCAR-4 ovarian; > 30.4 µM in the test on HT29 colon; 16.8 µM in the test on DU-145 prostate; 4.94 µM in the test on SF-539 CNS; 20.6 µM in the test with SW-620 colon. Besides, the figures for the TGI in the test on NCI/ADR-RES ovarian, with MDA-MB-435 and in the test with RPMI-8226 leukemia were > 100 µM, 6.84 µM and 5.48 µM, respectively.

Regarding `N#Cc1nc(-c2cccc(Br)c2)cc(-c2ccc(Nc3nc(N4CCCCC4)nc(N4CCCCC4)n3)cc2)c1N`, the GI50 with OVCAR-3 ovarian was 1760 nM; in the test on HT29 colon it was 1.22 µM; in the test with DU-145 prostate, 3.13 µM; in the test with SF-539 CNS, 1740 nM; with SW-620 colon, 1.53 µM; in the test with NCI/ADR-RES ovarian, 3.33 µM. In addition, the GI50 in the test with MDA-MB-435 was 2350 nM; in the test on RPMI-8226 leukemia, 2190 nM; in the test with LOX IMVI melanoma, 1.62 µM. For the same molecule, the TGI in the test on OVCAR-3 ovarian is 3.54 µM; in the test on HT29 colon it was 4.09 µM; with DU-145 prostate it was 10.2 µM; in the test on SF-539 CNS, 3.14 µM; with SW-620 colon it was 3.48 µM; in the test on NCI/ADR-RES ovarian, > 100 µM. Further, the total growth inhibition concentration (TGI) in the test with MDA-MB-435 stood at 6.64 µM; in the test with RPMI-8226 leukemia, 24 µM; in the test with LOX IMVI melanoma it was 3.01 µM.

For the molecule `c1ccc(-c2nc(Nc3ccc(-c4nc5ccccc5[nH]4)cc3)nc(N3CCOCC3)n2)cc1`, the GI50 with OVCAR-3 ovarian was 1520 nM; with OVCAR-4 ovarian it was 1680 nM; in the test on HT29 colon, 0.646 µM; in the test on DU-145 prostate it was 1.21 µM; in the test with SF-539 CNS it was 1420 nM; in the test with SW-620 colon, 0.627 µM. Moreover, the results for the GI50 in the test with NCI/ADR-RES ovarian, in the test on MDA-MB-435 and in the test on RPMI-8226 leukemia were 1.93 µM, 1760 nM and 1110 nM, respectively. Besides, the TGI is 2.98 µM in the test on OVCAR-3 ovarian; 3.08 µM in the test on OVCAR-4 ovarian; 2.19 µM with HT29 colon; 2.49 µM in the test with DU-145 prostate; 2.94 µM in the test with SF-539 CNS; 2.17 µM with SW-620 colon. The TGI in the test with NCI/ADR-RES ovarian was determined as 5.53 µM; with MDA-MB-435, 3.28 µM; with RPMI-8226 leukemia, 4.23 µM.

For the molecule `Cn1c2ccccc2c2c(=O)n(CCCC(=O)NCC(=O)OC(=NC3CCCCC3)NC3CCCCC3)c3c(-c4ccccc4)nnn3c21`, the GI50 with OVCAR-3 ovarian is 19600 nM; with DU-145 prostate it was 18.4 µM; with SF-539 CNS, 19900 nM; in the test on SW-620 colon, 3.76 µM; in the test on NCI/ADR-RES ovarian, 15.6 µM; in the test on MDA-MB-435, 25300 nM. Moreover, the GI50 was 4260 nM in the test on RPMI-8226 leukemia and 13.1 µM in the test with LOX IMVI melanoma. In addition, the TGI was 96.2 µM in the test on OVCAR-3 ovarian; > 100 µM in the test on DU-145 prostate; 58.1 µM with SF-539 CNS; > 100 µM with SW-620 colon; 33.5 µM with NCI/ADR-RES ovarian; > 100 µM with MDA-MB-435. Moreover, the TGI in the test on RPMI-8226 leukemia amounted to 21.2 µM; in the test on LOX IMVI melanoma, 97.3 µM.
